Consider twelve compounds from patent US12030878B2 (BRISTOL-MYERS SQUIBB COMPANY, priority 2017, dated 2024).

One may read the IC50 as the point on the concentration scale where inhibition reaches its midpoint.

Format in all cases: cell-based
For one assay, the target named is T1, human TLR7 (Homo sapiens, UniProt Q9NYK1).
T1 construct: host or cells: HEK-Blue cells
T1 sequence (Q9NYK1 27-1049): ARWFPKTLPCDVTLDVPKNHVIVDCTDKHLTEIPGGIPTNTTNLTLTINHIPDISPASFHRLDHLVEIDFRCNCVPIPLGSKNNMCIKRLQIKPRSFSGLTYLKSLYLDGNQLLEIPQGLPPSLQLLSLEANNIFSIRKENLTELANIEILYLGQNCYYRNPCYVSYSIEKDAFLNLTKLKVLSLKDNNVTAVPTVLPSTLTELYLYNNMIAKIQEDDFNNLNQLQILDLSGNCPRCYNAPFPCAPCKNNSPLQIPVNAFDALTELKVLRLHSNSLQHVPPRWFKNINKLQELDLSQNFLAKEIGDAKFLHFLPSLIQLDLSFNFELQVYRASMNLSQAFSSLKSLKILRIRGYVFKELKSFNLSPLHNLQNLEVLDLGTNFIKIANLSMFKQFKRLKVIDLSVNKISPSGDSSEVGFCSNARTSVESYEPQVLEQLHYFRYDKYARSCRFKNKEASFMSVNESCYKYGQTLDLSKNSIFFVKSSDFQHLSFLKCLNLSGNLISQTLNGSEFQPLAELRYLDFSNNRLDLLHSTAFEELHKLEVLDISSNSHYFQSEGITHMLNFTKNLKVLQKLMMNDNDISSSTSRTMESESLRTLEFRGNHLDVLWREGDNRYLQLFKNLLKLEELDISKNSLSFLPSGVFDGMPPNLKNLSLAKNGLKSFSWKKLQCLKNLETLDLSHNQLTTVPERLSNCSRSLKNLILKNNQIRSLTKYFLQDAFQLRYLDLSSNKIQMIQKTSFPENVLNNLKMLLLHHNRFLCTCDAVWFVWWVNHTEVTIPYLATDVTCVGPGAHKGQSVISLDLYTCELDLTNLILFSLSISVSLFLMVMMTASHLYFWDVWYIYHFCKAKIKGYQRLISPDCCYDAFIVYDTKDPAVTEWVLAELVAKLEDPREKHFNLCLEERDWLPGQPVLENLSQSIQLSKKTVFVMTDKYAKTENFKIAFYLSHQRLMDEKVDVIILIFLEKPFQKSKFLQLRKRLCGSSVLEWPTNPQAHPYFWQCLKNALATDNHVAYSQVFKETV
As to the kind of experiment: TLR7 inhibition reporter assay (HEK-Blue SEAP). To be noted: HEK-Blue cells overexpressing human TLR7, stimulated with gardiquimod 7.5 μM, 22 hour incubation. Put shortly: (§1)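 SEAP read-out via HEK-Blue Detection medium after 22 h at 37 °C; percent inhibition relative to agonist-plus-DMSO and known-inhibitor wells. Agonists: TLR7 gardiquimod 7.5 μM, TLR8 R848 15.9 μM, TLR9 ODN2006 5 nM. Dose range 0.05 nM–50 μM, 30 min compound pre-treatment at RT.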
In general terms: Reporter assays use an easily measured gene product as a stand-in for the process of interest.

For the next assay, the target named is T2, human TLR8 (Homo sapiens, UniProt Q9NR97).
T2 construct: host or cells: HEK-Blue cells
T2 sequence (Q9NR97 27-1041): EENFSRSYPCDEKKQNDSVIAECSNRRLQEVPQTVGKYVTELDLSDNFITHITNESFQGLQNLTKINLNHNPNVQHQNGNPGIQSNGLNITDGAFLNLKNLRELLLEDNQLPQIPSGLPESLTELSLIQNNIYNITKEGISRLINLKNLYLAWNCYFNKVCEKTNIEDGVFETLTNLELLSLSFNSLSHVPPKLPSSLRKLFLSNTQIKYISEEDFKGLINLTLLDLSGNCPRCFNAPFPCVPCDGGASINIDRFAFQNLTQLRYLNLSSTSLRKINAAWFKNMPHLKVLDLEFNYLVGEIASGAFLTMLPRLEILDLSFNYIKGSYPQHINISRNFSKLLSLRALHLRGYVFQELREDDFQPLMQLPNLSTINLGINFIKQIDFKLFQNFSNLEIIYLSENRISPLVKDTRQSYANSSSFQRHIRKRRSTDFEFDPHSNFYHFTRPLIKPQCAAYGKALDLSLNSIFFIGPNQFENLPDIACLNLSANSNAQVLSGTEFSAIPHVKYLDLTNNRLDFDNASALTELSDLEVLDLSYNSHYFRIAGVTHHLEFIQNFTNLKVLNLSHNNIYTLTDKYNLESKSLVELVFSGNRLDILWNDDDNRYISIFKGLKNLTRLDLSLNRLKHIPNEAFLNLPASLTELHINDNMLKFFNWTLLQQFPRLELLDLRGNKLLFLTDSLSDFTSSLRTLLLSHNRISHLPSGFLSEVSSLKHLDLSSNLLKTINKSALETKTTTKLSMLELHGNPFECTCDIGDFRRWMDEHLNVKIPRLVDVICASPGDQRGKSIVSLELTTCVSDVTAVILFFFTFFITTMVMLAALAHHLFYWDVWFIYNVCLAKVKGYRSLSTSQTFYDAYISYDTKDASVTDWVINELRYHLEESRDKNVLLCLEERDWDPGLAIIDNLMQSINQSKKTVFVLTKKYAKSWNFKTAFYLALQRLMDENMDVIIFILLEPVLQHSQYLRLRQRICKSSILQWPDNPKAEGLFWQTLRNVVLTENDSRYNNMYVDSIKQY
As to the kind of experiment: TLR8 inhibition reporter assay (HEK-Blue SEAP). To be noted: HEK-Blue cells overexpressing human TLR8, stimulated with R848 15.9 μM, 22 hour incubation. Put shortly:
as §1

A further assay concerns the target T3, human TLR9 (Homo sapiens, UniProt Q9NR96).
T3 construct: host or cells: HEK-Blue cells
T3 sequence (Q9NR96 26-1032): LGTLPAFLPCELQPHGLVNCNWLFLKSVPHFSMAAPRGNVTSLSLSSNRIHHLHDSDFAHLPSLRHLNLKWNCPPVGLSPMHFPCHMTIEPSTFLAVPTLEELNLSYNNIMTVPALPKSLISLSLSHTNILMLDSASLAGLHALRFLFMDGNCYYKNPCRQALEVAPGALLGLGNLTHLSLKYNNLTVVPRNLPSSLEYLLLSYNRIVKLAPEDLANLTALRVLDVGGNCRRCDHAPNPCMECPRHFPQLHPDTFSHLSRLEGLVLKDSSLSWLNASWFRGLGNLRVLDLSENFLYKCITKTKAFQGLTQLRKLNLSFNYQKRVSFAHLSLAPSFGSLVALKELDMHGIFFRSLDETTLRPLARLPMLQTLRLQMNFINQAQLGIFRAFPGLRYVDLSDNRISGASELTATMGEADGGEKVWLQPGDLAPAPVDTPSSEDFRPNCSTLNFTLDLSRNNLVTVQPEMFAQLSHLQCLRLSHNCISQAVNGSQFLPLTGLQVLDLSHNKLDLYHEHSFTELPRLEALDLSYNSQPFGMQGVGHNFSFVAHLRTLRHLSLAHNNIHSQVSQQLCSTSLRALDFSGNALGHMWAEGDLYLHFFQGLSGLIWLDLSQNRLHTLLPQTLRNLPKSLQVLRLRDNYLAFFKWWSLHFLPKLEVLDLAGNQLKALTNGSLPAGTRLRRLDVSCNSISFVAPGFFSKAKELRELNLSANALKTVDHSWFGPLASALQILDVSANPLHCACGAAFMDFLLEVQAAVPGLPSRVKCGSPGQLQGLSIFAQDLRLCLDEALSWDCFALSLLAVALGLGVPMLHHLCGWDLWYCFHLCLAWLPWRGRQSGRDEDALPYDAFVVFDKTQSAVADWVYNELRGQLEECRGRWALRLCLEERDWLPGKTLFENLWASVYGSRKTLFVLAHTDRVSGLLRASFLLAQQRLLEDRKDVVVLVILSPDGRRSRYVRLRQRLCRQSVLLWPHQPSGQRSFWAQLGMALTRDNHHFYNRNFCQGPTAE
Kind of assay: TLR9 inhibition reporter assay (HEK-Blue SEAP). As to conditions: HEK-Blue cells overexpressing human TLR9, stimulated with ODN2006 5 nM, 22 hour incubation. Put shortly: as §1

For `Cc1cc(-c2[nH]c3ccc(OC4CCN(C(=O)CN(C)C)CC4)cc3c2C(C)C)cn2ncnc12` [Example 101, 2-(dimethylamino)-1-(4-((3-isopropyl-2-(8-methyl-[1,2,4]triazolo[1,5-a]pyridin-6-yl)-1H-indol-5-yl)oxy)piperidin-1-yl)ethan-1-one], the IC50 was determined as 2.3 nM against human TLR7, 35.9 nM at human TLR8 and 9750 nM on human TLR9.

For `Cc1cc(-c2[nH]c3ccc(OCC4CCN(C(=O)CN(C)C)CC4)cc3c2C(C)C)cn2ncnc12` [Example 102, 2-(dimethylamino)-1-(4-(((3-isopropyl-2-(8-methyl-[1,2,4]triazolo[1,5-a]pyridin-6-yl)-1H-indol-5-yl)oxy)methyl)piperidin-1-yl)ethan-1-one], the figures for the IC50 against human TLR7, against human TLR8 and against human TLR9 were 0.3 nM, 5 nM and 2570 nM, respectively.

In the case of `Cc1c(-c2[nH]c3ccc(OCC4CCN(C(=O)CN(C)C)CC4)cc3c2C(C)C)cn(C)c(=O)c1C` [Example 103, 5-(5-((1-(dimethylglycyl)piperidin-4-yl)methoxy)-3-isopropyl-1H-indol-2-yl)-1,3,4-trimethylpyridin-2(1H)-one], the IC50 at human TLR7 is 12.3 nM; against human TLR8, 14.9 nM; on human TLR9, 5400 nM.

On to `Cc1c(-c2[nH]c3ccc(OC4CCN(C(=O)CN(C)C)CC4)cc3c2C(C)C)cn(C)c(=O)c1C` [Example 104, 5-(5-((1-(dimethylglycyl)piperidin-4-yl)oxy)-3-isopropyl-1H-indol-2-yl)-1,3,4-trimethylpyridin-2(1H)-one], for which the IC50 turned out to be 7.8 nM at human TLR7, 16.2 nM against human TLR8 and 5110 nM at human TLR9.

For `Cc1c(-c2[nH]c3ccc(OC4CCN(C(=O)CN(C)C)CC4)cc3c2C(C)C)cn2cnnc2c1C` [Example 105, 1-(4-((2-(7,8-dimethyl-[1,2,4]triazolo[4,3-a]pyridin-6-yl)-3-isopropyl-1H-indol-5-yl)oxy)piperidin-1-yl)-2-(dimethylamino)ethan-1-one], the values for the half-maximal inhibitory concentration (IC50) at human TLR7, on human TLR8 and against human TLR9 were 2.9 nM, 50.2 nM and 1560 nM, respectively.

`Cc1c(-c2[nH]c3ccc(OCC4CCN(C(=O)CN(C)C)CC4)cc3c2C(C)C)cn2cnnc2c1C` [Example 106, 1-(4-(((2-(7,8-dimethyl-[1,2,4]triazolo[4,3-a]pyridin-6-yl)-3-isopropyl-1H-indol-5-yl)oxy)methyl)piperidin-1-yl)-2-(dimethylamino)ethan-1-one]: the values for the IC50 against human TLR7, against human TLR8 and against human TLR9 were 4.6 nM, 57.8 nM and 2110 nM, respectively.

Consider `Cc1cc(-c2[nH]c3ccc(OCC4CN(C(=O)CN(C)C)C4)cc3c2C(C)C)cn2ncnc12` [Example 107, 2-(dimethylamino)-1-(3-(((3-isopropyl-2-(8-methyl-[1,2,4]triazolo[1,5-a]pyridin-6-yl)-1H-indol-5-yl)oxy)methyl)azetidin-1-yl) ethan-1-one], for which the IC50 was determined as 0.6 nM at human TLR7, 9.4 nM on human TLR8 and 3160 nM on human TLR9.

In the case of `Cc1c(-c2[nH]c3ccc(OCC4CN(C(=O)CN(C)C)C4)cc3c2C(C)C)cn2cnnc2c1C` [Example 108, 1-(3-(((2-(7,8-dimethyl-[1,2,4]triazolo[4,3-a]pyridin-6-yl)-3-isopropyl-1H-indol-5-yl)oxy)methyl)azetidin-1-yl)-2-(dimethylamino) ethan-1-one], the IC50 on human TLR7 amounted to 14.6 nM; at human TLR8, 124 nM; against human TLR9, 852 nM.

On to `CNCC(=O)N1CCC(Oc2ccc3[nH]c(-c4cc(C)nc(C)c4)c(C(C)C)c3c2)CC1` [Example 109, 1-(4-((2-(2,6-dimethylpyridin-4-yl)-3-isopropyl-H-indol-5-yl)oxy)piperidin-1-yl)-2-(methylamino)ethanone], for which the IC50 at human TLR7 worked out at 1.9 nM; on human TLR8, 10 nM; on human TLR9, 300 nM.

As for `CNC(=O)CN1CCC(COc2ccc3[nH]c(-c4cc(C)nc(C)c4)c(C(C)C)c3c2)CC1` [Example 110, 2-(4-(((2-(2,6-dimethylpyridin-4-yl)-3-isopropyl-1H-indol-5-yl)oxy)methyl)piperidin-1-yl)-N-methylacetamide], the IC50 on human TLR7 came out at 9.6 nM; against human TLR8 it was 7.3 nM; against human TLR9, 492 nM.

As for `CNC(=O)CN1CCC(COc2ccc3[nH]c(-c4cc(C)c(=O)n(C)c4)c(C(C)C)c3c2)CC1` [Example 111, 2-(4-(((2-(1,5-dimethyl-6-oxo-1,6-dihydropyridin-3-yl)-3-isopropyl-1H-indol-5-yl)oxy)methyl)piperidin-1-yl)-N-methylacetamide], the IC50 on human TLR7 amounted to 14.2 nM; against human TLR8, 6.8 nM; against human TLR9 it was 46800 nM.

For `CNC(=O)CN1CCC(Oc2ccc3[nH]c(-c4cc(C)c(=O)n(C)c4)c(C(C)C)c3c2)CC1` [Example 112, 2-(4-((2-(1,5-dimethyl-6-oxo-1,6-dihydropyridin-3-yl)-3-isopropyl-1H-indol-5-yl)oxy)piperidin-1-yl)-N-methylacetamide], the IC50 was 10.2 nM against human TLR7, 8.9 nM against human TLR8 and more than 50000 nM on human TLR9.
